In US20240270741A1 (Cogent Biosciences, Inc., priority 2023, published 2024):

target: FGFR2 (Homo sapiens, UniProt P21802); assay: FGFR wild type enzyme assay (HTRF KinEASE-TK), FGFR2; conditions: Enz FGFR2 (nM), FGFR2 wild type enzyme assay
Sequence (P21802 399-821 limits assumed): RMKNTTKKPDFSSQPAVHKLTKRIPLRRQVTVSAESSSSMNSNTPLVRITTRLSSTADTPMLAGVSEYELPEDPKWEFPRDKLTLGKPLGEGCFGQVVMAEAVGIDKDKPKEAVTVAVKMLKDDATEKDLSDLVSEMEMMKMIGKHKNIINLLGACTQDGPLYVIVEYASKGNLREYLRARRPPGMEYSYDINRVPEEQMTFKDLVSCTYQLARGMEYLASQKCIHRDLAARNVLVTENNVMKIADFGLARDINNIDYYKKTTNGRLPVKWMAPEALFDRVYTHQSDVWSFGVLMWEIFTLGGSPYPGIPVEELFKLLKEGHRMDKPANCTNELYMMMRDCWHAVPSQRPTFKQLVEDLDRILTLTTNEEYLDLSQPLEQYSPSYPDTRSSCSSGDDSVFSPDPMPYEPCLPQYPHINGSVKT

| SMILES | IC50 [nM] |
| --- | --- |
| CC(=O)N1CCC(n2cc(-c3cc(Sc4ccc(F)cc4C#N)c4c(C#N)cnn4c3)c(C)n2)CC1 [Example 432, 6-(1-(1-acetylpiperidin-4-yl)-3-methyl-1H-pyrazol-4-yl)-4-((2-cyano-4-fluorophenyl)thio)pyrazolo [1,5-a]pyridine-3-carbonitrile] | 3 |
| Cc1c(-c2cc(Sc3ccc(F)cc3C#N)c3c(C#N)cnn3c2)cnn1[C@H]1CCCN(c2ncccn2)C1 [Example 433, (S)-4-((2-cyano-4-fluorophenyl)thio)-6-(5-methyl-1-(1-(pyrimidin-2-yl)piperidin-3-yl)-1H-pyrazol-4-yl)pyrazolo[1,5-a]pyridine-3-carbonitrile] | 5 |
| Cc1c(-c2cc(Sc3ncccc3C#N)c3c(C#N)cnn3c2)cnn1[C@H]1CCCNC1 [Example 434, (S)-4-((3-cyanopyridin-2-yl)thio)-6-(5-methyl-1-(piperidin-3-yl)-1H-pyrazol-4-yl)pyrazolo[1,5-a]pyridine-3-carbonitrile] | 1 |
| N#Cc1cc(F)ccc1Sc1cc(-c2cnn([C@H]3CCCNC3)c2)cn2ncc(C#N)c12 [Example 435, (S)-4-((2-cyano-4-fluorophenyl)thio)-6-(1-(piperidin-3-yl)-1H-pyrazol-4-yl)pyrazolo[1,5-a]pyridine-3-carbonitrile] | 1 |
| CC(=O)N1CCC(n2ncc(-c3cc(Sc4ccccc4C#N)c4c(C#N)cnn4c3)c2C)CC1 [Example 436, 6-(1-(1-acetylpiperidin-4-yl)-5-methyl-1H-pyrazol-4-yl)-4-((2-cyanophenyl)thio)pyrazolo [1,5-a]pyridine-3-carbonitrile] | 1 |
| Cc1c(-c2cc(Sc3ccccc3C#N)c3c(C#N)cnn3c2)cnn1C1CCN(C(=O)C(C)(C)C)CC1 [Example 437, 4-((2-cyanophenyl)thio)-6-(5-methyl-1-(1-pivaloylpiperidin-4-yl)-1H-pyrazol-4-yl)pyrazolo[1,5-a]pyridine-3-carbonitrile] | 1 |
| Cc1c(-c2cc(Sc3ccc(F)cc3C#N)c3c(C#N)cnn3c2)cnn1[C@H]1CC[C@@](O)(CO)CC1 [Example 438, 4-(2-cyano-4-fluoro-phenyl) sulfanyl-6-[1-[4-hydroxy-4-(hydroxymethyl)cyclohexyl]-5-methylpyrazol-4-yl] pyrazolo[1,5-a]pyridine-3-carbonitrile] | 1 |
| Cc1c(-c2cc(Sc3ccc(F)cc3C#N)c3c(C#N)cnn3c2)cnn1[C@@H]1CNC(C)(C)C1 [Example 439, (S)-4-((2-cyano-4-fluorophenyl)thio)-6-(1-(5,5-dimethylpyrrolidin-3-yl)-5-methyl-1H-pyrazol-4-yl)pyrazolo[1,5-a]pyridine-3-carbonitrile] | 1 |
| Cc1c(-c2cc(Sc3ccc(F)cc3C#N)c3c(C#N)cnn3c2)cnn1[C@H]1CNC(C)(C)C1 [Example 440, (R)-4-((2-cyano-4-fluorophenyl)thio)-6-(1-(5,5-dimethylpyrrolidin-3-yl)-5-methyl-1H-pyrazol-4-yl)pyrazolo[1,5-a]pyridine-3-carbonitrile] | 2 |
| Cc1nn([C@H]2CC[C@H](O)CC2)cc1-c1cc(Sc2ccccc2C#N)c2c(C#N)cnn2c1 [Example 441, 4-((2-cyanophenyl)thio)-6-(1-((1r,4r)-4-hydroxycyclohexyl)-3-methyl-1H-pyrazol-4-yl)pyrazolo[1,5-a]pyridine-3-carbonitrile] | 3 |
| Cc1nn([C@H]2CC[C@H](O)CC2)cc1-c1cc(Sc2ncccc2F)c2c(C#N)cnn2c1 [Example 442, 4-((3-fluoropyridin-2-yl)thio)-6-(1-((1r,4r)-4-hydroxycyclohexyl)-3-methyl-1H-pyrazol-4-yl)pyrazolo[1,5-a]pyridine-3-carbonitrile] | 8 |
| Cc1nn([C@H]2CC[C@H](O)CC2)cc1-c1cc(Sc2ccc(F)cc2C#N)c2c(C#N)cnn2c1 [Example 443, 4-((2-cyano-4-fluorophenyl)thio)-6-(1-((1r,4r)-4-hydroxycyclohexyl)-3-methyl-1H-pyrazol-4-yl)pyrazolo[1,5-a]pyridine-3-carbonitrile] | 4 |
| CC(=O)N1CCC(n2cc(-c3cc(Sc4ccccc4C#N)c4c(C#N)cnn4c3)cn2)CC1 [Example 444, 6-(1-(1-acetylpiperidin-4-yl)-1H-pyrazol-4-yl)-4-((2-cyanophenyl)thio)pyrazolo [1,5-a]pyridine-3-carbonitrile] | 0.3 |
| N#Cc1cc(F)ccc1Sc1cc(-c2cnn(C3CCN(C(=O)CO)CC3)c2)cn2ncc(C#N)c12 [Example 445, 4-((2-cyano-4-fluorophenyl)thio)-6-(1-(1-(2-hydroxyacetyl)piperidin-4-yl)-1H-pyrazol-4-yl)pyrazolo[1,5-a]pyridine-3-carbonitrile] | 1 |
| N#Cc1ccccc1Sc1cc(-c2cnn(C3CCN(C(=O)CO)CC3)c2)cn2ncc(C#N)c12 [Example 446, 4-((2-cyanophenyl)thio)-6-(1-(1-(2-hydroxyacetyl)piperidin-4-yl)-1H-pyrazol-4-yl)pyrazolo[1,5-a]pyridine-3-carbonitrile] | 0.5 |
| C[C@@H](O)C(=O)N1CCC(n2cc(-c3cc(Sc4ccccc4C#N)c4c(C#N)cnn4c3)cn2)CC1 [Example 447] | 0.4 |

| SMILES | IC50 [nM] |
| --- | --- |
| C[C@H](O)C(=O)N1CCC(n2cc(-c3cc(Sc4ccccc4C#N)c4c(C#N)cnn4c3)cn2)CC1 [Example 448, (S)-4-((2-cyanophenyl)thio)-6-(1-(1-(2-hydroxypropanoyl)piperidin-4-yl)-1H-pyrazol-4-yl)pyrazolo[1,5-a]pyridine-3-carbonitrile] | 0.3 |
| CC(C)n1cc(-c2cc(Sc3ncccc3F)c3c(C#N)cnn3c2)cn1 [Example 449, 4-((3-fluoropyridin-2-yl)thio)-6-(1-isopropyl-1H-pyrazol-4-yl)pyrazolo[1,5-a]pyridine-3-carbonitrile] | 2 |
| CC(=O)N1CC[C@H](n2cc(-c3cc(Sc4ncccc4F)c4c(C#N)cnn4c3)cn2)C1 [Example 450, (S)-6-(1-(1-acetylpyrrolidin-3-yl)-1H-pyrazol-4-yl)-4-((3-fluoropyridin-2-yl)thio)pyrazolo[1,5-a]pyridine-3-carbonitrile] | 1 |
| N#Cc1cnn2cc(-c3cnn([C@H]4CCN(C(=O)CO)C4)c3)cc(Sc3ncccc3F)c12 [Example 451, (S)-4-((3-fluoropyridin-2-yl)thio)-6-(1-(1-(2-hydroxyacetyl)pyrrolidin-3-yl)-1H-pyrazol-4-yl)pyrazolo[1,5-a]pyridine-3-carbonitrile] | 1 |
| CC(C)n1cc(-c2cc(Sc3ccccc3C#N)c3c(C#N)cnn3c2)cn1 [Example 452, 4-((2-cyanophenyl)thio)-6-(1-isopropyl-1H-pyrazol-4-yl)pyrazolo[1,5-a]pyridine-3-carbonitrile] | 0.6 |
| CC(=O)N1CC[C@H](n2cc(-c3cc(Sc4ccccc4C#N)c4c(C#N)cnn4c3)cn2)C1 [Example 453, (S)-6-(1-(1-acetylpyrrolidin-3-yl)-1H-pyrazol-4-yl)-4-((2-cyanophenyl)thio)pyrazolo [1,5-a]pyridine-3-carbonitrile] | 0.4 |
| CC(=O)N1CCC(n2nc(C)c(-c3cc(Sc4ncccc4F)c4c(C#N)cnn4c3)c2F)CC1 [Example 454, 6-(1-(1-acetylpiperidin-4-yl)-5-fluoro-3-methyl-1H-pyrazol-4-yl)-4-((3-fluoropyridin-2-yl)thio)pyrazolo[1,5-a]pyridine-3-carbonitrile] | 12 |
| Cc1noc(N2CCC[C@H](n3ncc(-c4cc(Sc5ccc(F)cc5C#N)c5c(C#N)cnn5c4)c3C)C2)n1 [Example 455, 4-(2-cyano-4-fluoro-phenyl)sulfanyl-6-[5-methyl-1-[(3S)-1-(3-methyl-1,2,4-oxadiazol-5-yl)-3-piperidyl]pyrazol-4-yl]pyrazolo[1,5-a]pyridine-3-carbonitrile] | 2 |
| Cc1c(-c2cc(Sc3ccc(F)cc3C#N)c3c(C#N)cnn3c2)cnn1[C@H]1CCCN(c2ccccn2)C1 [Example 456, (S)-4-((2-cyano-4-fluorophenyl)thio)-6-(5-methyl-1-(1-(pyridin-2-yl)piperidin-3-yl)-1H-pyrazol-4-yl)pyrazolo[1,5-a]pyridine-3-carbonitrile] | 8 |
| N#Cc1cnn2cc(-c3cnn([C@H]4CCCNC4)n3)cc(Sc3ncccc3F)c12 [Example 457, 4-[(3-fluoro-2-pyridyl)sulfanyl]-6-[2-[(3S)-3-piperidyl]triazol-4-yl]pyrazolo[1,5-a]pyridine-3-carbonitrile] | 13 |
| CC(=O)N1CC[C@H](n2cc(-c3cc(Sc4ccccc4C#N)c4c(C#N)cnn4c3)cn2)[C@@H](O)C1 [Example 458, 6-(1-((3S,4S)-1-acetyl-3-hydroxypiperidin-4-yl)-1H-pyrazol-4-yl)-4-((2-cyanophenyl)thio)pyrazolo [1,5-a]pyridine-3-carbonitrile] | 1 |
| CC(=O)N1CC[C@@H](n2cc(-c3cc(Sc4ccccc4C#N)c4c(C#N)cnn4c3)cn2)[C@H](O)C1 [Example 459, 6-(1-((3R,4R)-1-acetyl-3-hydroxypiperidin-4-yl)-1H-pyrazol-4-yl)-4-((2-cyanophenyl)thio)pyrazolo [1,5-a]pyridine-3-carbonitrile] | 0.4 |
| N#Cc1cc(F)ccc1Sc1cc(-c2cn([C@H]3CCCNC3)nn2)cn2ncc(C#N)c12 [Example 460, (S)-4-((2-cyano-4-fluorophenyl)thio)-6-(1-(piperidin-3-yl)-1H-1,2,3-triazol-4-yl)pyrazolo[1,5-a]pyridine-3-carbonitrile] | 6 |
| N#Cc1ccccc1Sc1cc(-c2cn([C@H]3CCCNC3)nn2)cn2ncc(C#N)c12 [Example 461, (S)-4-((2-cyanophenyl)thio)-6-(1-(piperidin-3-yl)-1H-1,2,3-triazol-4-yl)pyrazolo[1,5-a]pyridine-3-carbonitrile] | 4 |
| N#Cc1cc(F)ccc1Sc1cc(-c2cnn([C@H]3CCCNC3)n2)cn2ncc(C#N)c12 [Example 462, (S)-4-((2-cyano-4-fluorophenyl)thio)-6-(2-(piperidin-3-yl)-2H-1,2,3-triazol-4-yl)pyrazolo[1,5-a]pyridine-3-carbonitrile] | 19 |
| N#Cc1ccccc1Sc1cc(-c2cnn([C@H]3CCCNC3)n2)cn2ncc(C#N)c12 [Example 463, (S)-4-((2-cyanophenyl)thio)-6-(2-(piperidin-3-yl)-2H-1,2,3-triazol-4-yl)pyrazolo[1,5-a]pyridine-3-carbonitrile] | 6 |
